A word on the T/C: it is the ratio of treated to control.

The values below come from ChEMBL document CHEMBL3227961, “Antileukemic activity of substituted ureidothiazoles, ureidothiadiazoles, and related compounds” (J Med Chem, 1979).

Calls of active or inactive are those of the source. No cut-off for these calls is given here.

The subject of data set [1] is P388. The data set can be described thus: Antitumor activity against mouse P388 cells allografted in BDF1 mouse assessed as survival at 50 mg/kg administered as qd for 1 to 9 days. It is filed as functional, organism-based. The arrangement: dose 50 mg/kg.
For data set [2], the system named is P388. The data set is described as follows: Antitumor activity against mouse P388 cells allografted in BDF1 mouse assessed as survival at 25 mg/kg administered as qd for 1 to 9 days. On the set-up: dose 25 mg/kg. It is filed as functional, organism-based.
Data set [3] relates to P388. The data set can be described thus: Antitumor activity against mouse P388 cells allografted in BDF1 mouse assessed as survival at 12.5 mg/kg administered as qd for 1 to 9 days. It is filed as functional, organism-based. The arrangement: dose 12.5 mg/kg.
Data set [4] has as its system P388. The data set is described as follows: Antitumor activity against mouse P388 cells allografted in BDF1 mouse assessed as tumor growth inhibition at 50 mg/kg administered as qd for 1 to 9 days relative to control. It is filed as functional.
The test system of data set [5] is P388. The data set can be described thus: Antitumor activity against mouse P388 cells allografted in BDF1 mouse assessed as tumor growth inhibition at 25 mg/kg administered as qd for 1 to 9 days relative to control. It is filed as functional.
In data set [6] the test system is P388. The data set is described as follows: Antitumor activity against mouse P388 cells allografted in BDF1 mouse assessed as tumor growth inhibition at 12.5 mg/kg administered as qd for 1 to 9 days relative to control. It is filed as functional.
In data set [7] the test system is P388. The data set can be described thus: Antitumor activity against mouse P388 cells allografted in BDF1 mouse assessed as survival at 100 mg/kg administered as qd for 1 to 9 days. It is filed as functional, organism-based. On the set-up: dose 100 mg/kg.
Data set [8] concerns P388. The data set can be described thus: Antitumor activity against mouse P388 cells allografted in BDF1 mouse assessed as tumor growth inhibition at 400 mg/kg administered as qd for 1 to 9 days relative to control. It is filed as functional.
Data set [9] concerns P388. The data set is described as follows: Antitumor activity against mouse P388 cells allografted in BDF1 mouse assessed as tumor growth inhibition at 200 mg/kg administered as qd for 1 to 9 days relative to control. It is filed as functional.
Data set [10] has as its system P388. The data set is described as follows: Antitumor activity against mouse P388 cells allografted in BDF1 mouse assessed as tumor growth inhibition at 100 mg/kg administered as qd for 1 to 9 days relative to control. It is filed as functional.
In data set [11] the test system is P388. The data set can be described thus: Antitumor activity against mouse P388 cells allografted in BDF1 mouse assessed as survival at 400 mg/kg administered as qd for 1 to 9 days. It is filed as functional, organism-based. The arrangement: dose 400 mg/kg.
The test system of data set [12] is P388. The data set can be described thus: Antitumor activity against mouse P388 cells allografted in BDF1 mouse assessed as survival at 200 mg/kg administered as qd for 1 to 9 days. It is filed as functional, organism-based. The arrangement: dose 200 mg/kg.
The subject of data set [13] is B16. The data set can be described thus: Antitumor activity against mouse B16 cells allografted in BDF1 mouse assessed as tumor growth inhibition at 400 mg/kg administered as qd for 1 to 9 days relative to control. It is filed as functional.
In data set [14] the test system is B16. The data set can be described thus: Antitumor activity against mouse B16 cells allografted in BDF1 mouse assessed as tumor growth inhibition at 200 mg/kg administered as qd for 1 to 9 days relative to control. It is filed as functional.
The test system of data set [15] is B16. The data set is described as follows: Antitumor activity against mouse B16 cells allografted in BDF1 mouse assessed as tumor growth inhibition at 100 mg/kg administered as qd for 1 to 9 days relative to control. It is filed as functional.
Data set [16] has as its system B16. The data set is described as follows: Antitumor activity against mouse B16 cells allografted in BDF1 mouse assessed as tumor growth inhibition at 50 mg/kg administered as qd for 1 to 9 days relative to control. It is filed as functional.
Data set [17] relates to B16. The data set can be described thus: Antitumor activity against mouse B16 cells allografted in BDF1 mouse assessed as tumor growth inhibition at 25 mg/kg administered as qd for 1 to 9 days relative to control. It is filed as functional.
For a further data set, the system named is L1210. The data set can be described thus: Antitumor activity against mouse L1210 cells allografted in BDF1 mouse assessed as tumor growth inhibition at 200 mg/kg administered as qd for 1 to 9 days relative to control. It is filed as functional.
Data set [18] has as its system Lewis lung carcinoma cell line. The data set can be described thus: Antitumor activity against mouse LLC cells allografted in BDF1 mouse assessed as tumor growth inhibition. It is filed as functional.
The subject of data set [19] is B16. The data set can be described thus: Antitumor activity against mouse B16 cells allografted in BDF1 mouse assessed as tumor growth inhibition at 6.25 to 50 mg/kg administered as qd for 1 to 9 days relative to control. It is filed as functional, organism-based.
For a further data set, the system named is Mus musculus. The data set can be described thus: Toxicity in mouse B16 cells allografted in BDF1 mouse at 6.25 to 50 mg/kg administered as qd for 1 to 9 days. It is filed as organism-based.

For `O=C(Nc1ccc([N+](=O)[O-])cc1)Nc1nccs1`, the outcome in the data set on P388 [1], with P388 [2] and in the data set on P388 [3] was Active. Moreover, the T/C was 142% in the data set on P388 [4], 127% with P388 [5] and 112% with P388 [6].
In the case of `CCOC(=O)c1ccc(NC(=S)Nc2nccs2)cc1`, the result with P388 [7] was Active. Also, the T/C is on record as 92% in the data set with P388 [8], 92% with P388 [9] and 95% in the data set on P388 [10].
Regarding `CCOC(=O)c1ccc(NC(=O)Nc2scc[n+]2C)cc1.COS(=O)(=O)[O-]`, the outcome with P388 [7] was Active. Besides, the results for the T/C in the data set with P388 [9] and in the data set with P388 [10] were 90% and 100%, respectively.
For `CCOC(=O)c1ccc(NC(=O)Nc2nc3ccccc3s2)cc1`, the result in the data set with P388 [11] and with P388 [12] was Active. The T/C in the data set with P388 [8] and in the data set with P388 [9] was 90% each time.
For `O=C(Nc1ccc([N+](=O)[O-])cc1)Nc1nncs1`, the result with P388 [7] was Active. The figures for the T/C in the data set on P388 [8], in the data set on P388 [9] and in the data set on P388 [10] were 142%, 132% and 124%, respectively.
For the molecule `O=C(Nc1ccccc1)Nc1nccs1`, the outcome in the data set with P388 [12] and in the data set on P388 [7] was Active. For the same molecule, the T/C in the data set with P388 [9] was found to be 93%; with P388 [10] it was 96%.
Turning to `CCOC(=O)Nc1nccs1`, the outcome in the data set on P388 [12] and with P388 [7] was Active. Also, the T/C amounted to 108% in the data set with P388 [9] and 102% in the data set on P388 [10].
For the molecule `O=C(Nc1nncs1)C(F)(F)F`, the result in the data set with P388 [1] and in the data set on P388 [3] was Active. The T/C in the data set on P388 [4] was found to be 161%; in the data set on P388 [5], 130%; in the data set with P388 [6] it was 110%.
With `O=C(CCl)Nc1nncs1`, the result in the data set with P388 [12] and with P388 [7] was Active. Moreover, the T/C with P388 [9] is 100%; in the data set on P388 [10] it was 104%.
As to `Cc1ccc(S(=O)(=O)NC(=O)Nc2nccs2)cc1`, the result with P388 [12] and with P388 [7] was Active. The T/C is on record as 99% in the data set with P388 [9] and 106% with P388 [10].
Turning to `CCOC(=O)c1ccc(NC(=O)Nc2nc3ccc(OC)cc3s2)cc1`, the outcome with P388 [11] and with P388 [12] was Active. Besides, the T/C with P388 [8] and with P388 [9] was 89% throughout.
For `O=C(Nc1ccc(Cl)cc1)Nc1nccs1`, the outcome in the data set on P388 [7] and in the data set with P388 [1] was Active. The T/C is given as 118% in the data set with P388 [10] and 111% in the data set on P388 [4].
`O=C(Nc1ccccc1)Nc1nncs1`: the result in the data set on P388 [2] and with P388 [3] was Active. Further, the T/C with P388 [5] and in the data set with P388 [6] was 104% each time.
In the case of `CCOC(=O)Nc1nncs1`, the result with P388 [12], with P388 [7], in the data set on P388 [1] and in the data set with P388 [2] was Active. For the same molecule, the T/C with P388 [9] came to 151%; with P388 [10], 142%; in the data set with P388 [4], 132%; in the data set with P388 [5], 108%.
Take `N#Cc1ccc(NC(=O)Nc2nncs2)cc1`: the result in the data set on P388 [7], in the data set with P388 [1] and in the data set with P388 [2] was Active. Besides, the T/C with P388 [9] worked out at 146%; with P388 [10] it was 140%; in the data set on P388 [4], 131%; in the data set with P388 [5], 122%.
Consider `O=C(Nc1ccc(C(=O)O)cc1)Nc1nccs1`, for which the result with P388 [12], in the data set with P388 [7], with P388 [1] and in the data set with P388 [2] was Active. Further, the T/C in the data set on P388 [9] was found to be 163%; with P388 [10], 150%; in the data set on P388 [4], 143%; in the data set on P388 [5], 125%.
Turning to `CCOC(=O)c1ccc(NC(=O)Nc2nccs2)cc1`, the result with P388 [7], with P388 [1] and in the data set with P388 [2] was Active. Moreover, the T/C in the data set on P388 [9] amounted to 162%; with P388 [10], 143%; in the data set with P388 [4], 149%; in the data set on P388 [5], 145%; in the data set with B16 [13] it was 153%; in the data set with B16 [14], 167%. The T/C is 166% in the data set with B16 [15], 147% with B16 [16], 134% in the data set on B16 [17] and 125% in the data set on L1210. For the same molecule, the TGI result in [18] was “inactive”.
For `CCOC(=O)c1ccc(NC(=O)Nc2nc(C)cs2)cc1`, the result in the data set on P388 [12], in the data set with P388 [7] and with P388 [1] was Active. In addition, the T/C in the data set with P388 [9] is recorded as 138%; in the data set with P388 [10], 127%; in the data set with P388 [4], 109%.
Consider `N#Cc1ccc(NC(=O)Nc2nccs2)cc1`, for which the result in the data set on P388 [1] and with P388 [2] was Active. Moreover, the T/C with P388 [10] stood at 160%; in the data set on P388 [4] it was 132%; with P388 [5], 124%.
On to `CCOC(=O)c1ccc(NC(=O)NC2=NCCS2)cc1`, for which the outcome in the data set with P388 [11] and in the data set with P388 [12] was Active. For the same molecule, the values for the T/C with P388 [8] and in the data set with P388 [9] were 92% and 87%, respectively.
On to `CCOC(=O)c1ccc(NC(=O)Nc2nnc(NC(=O)Nc3ccc(C(=O)OCC)cc3)[nH]2)cc1`, for which the outcome in the data set on P388 [7] and with P388 [1] was Active. Besides, the T/C in the data set with P388 [10] stood at 88%; with P388 [4], 89%.
Turning to `CCOC(=O)c1ccc(NC(=O)Nc2nncs2)cc1`, the result in the data set with P388 [7], in the data set with P388 [1], in the data set on P388 [2] and with P388 [3] was Active. Moreover, the T/C in the data set on P388 [10] was 134%; with P388 [4], 138%; in the data set with P388 [5], 132%; in the data set on P388 [6], 119%. In addition, the TGI result in the data set on B16 [19] is “inactive”. For the same molecule, the Activity entry in the data set with Mus musculus is on record as “Non-toxic”.
On to `O=C(Nc1nccs1)C(F)(F)F`, for which the result in the data set on P388 [11] and in the data set with P388 [7] was Active. For the same molecule, the T/C with P388 [8] came out at 108%; in the data set with P388 [9], 99%; in the data set with P388 [10] it was 104%.
Take `O=C(CCl)Nc1nccs1`: the outcome in the data set with P388 [7] and in the data set on P388 [1] was Active. Moreover, the T/C with P388 [10] is recorded as 116%; in the data set with P388 [4] it was 103%.
For `CCOC(=O)c1ccc(NC(=O)Nc2nnn[nH]2)cc1`, the result in the data set with P388 [11] and in the data set with P388 [12] was Active. The T/C turned out to be 108% in the data set on P388 [8] and 100% with P388 [9].
For the molecule `CNC(=O)Nc1nccs1`, the result in the data set on P388 [12] and in the data set on P388 [1] was Active. The T/C in the data set on P388 [9] is reported as 97%; in the data set with P388 [10], 96%; in the data set on P388 [4], 105%.
On to `Cc1ccc(NC(=O)Nc2nccs2)cc1`, for which the result with P388 [12] and in the data set on P388 [7] was Active. The T/C was 105% with P388 [9] and 99% in the data set with P388 [10].
